Patent publication US8222242B2, “Nitric oxide releasing compounds” (The Regents of the University of California, priority 2008, dated 2012)

Legend:
[1] = cited from earlier work
[2] = system: isolated mouse hearts; assay: Coronary flow in isolated perfused mouse hearts (Langendorff)
Protocol: Hearts and aortas were removed from NIH Swiss mice anesthetized with sodium nembutal, and coronary flow was measured in the hearts using a Langendorff preparation (FIG. 5a) and relaxation of aortic rings was measured after inducing constriction of the rings with prostaglandin F2α (FIG. 5b). The hearts and aortic rings were treated with a range of concentrations of NO-Cbi (filled circles), nitroglycerin (open circles, dotted line, FIG. 5a), and sodium nitroprusside (open circles, FIG. 5b). Coronary flow was measured on the same hearts for both NO-Cbi and nitroglycerin after an appropriate wash-out period between drugs, and aortic ring relaxation was measured on two rings from the same aorta for NO-Cbi and sodium nitroprusside. The data are the mean of two independent experiments performed on two separate hearts in each experiment (FIG. 5a), and the mean±SEM of two independent experiments performed on three separate aortic rings in each experiment (FIG. 5b).
Coronary flow was measured in isolated perfused mouse hearts in a Langendorff system, and was 10.8±0.5 ml/min/g wet weight (n=7 hearts) under basal conditions. […] The latter value is similar to maximal coronary flow of 24.6±1.8 ml/min/g wet weight obtained with 62 μM adenosine. For nitroglycerin to increase coronary flow to that of NO-Cbi, the nitroglycerin concentration had to be increased to 770 μM, or about 100-fold greater than the NO-Cbi concentration (FIG. 5a).

[3] = system: Malpighian tubules isolated from D. melanogaster; assay: Malpighian tubule fluid secretion; parameters: species or system Drosophila melanogaster; details: 1 mM cobinamide or Cbi(II), 5 mM ascorbic acid, half-strength Schneider's medium
Protocol: Malpighian tubules are the osmoregulatory organs of D. melanogaster, corresponding to vertebrate kidneys. Tubular fluid secretion is stimulated by NO and cGMP, and fluid secretion rates were measured as described previously (Broderick K E et al. (2005) J. Biol. Chem. 280:8678-85). Briefly, the Malpighian tubule pair of a fly was resected and suspended in mineral oil. […]
Malpighian tubules are an excellent model for studying the effects of a drug on an intact organ system (Broderick K E et al. (2003) Am. J. Physiol. Cell Physiol. 285:C1207-18). […] Deta-NONOate may not be affected as much by cysteine in the medium, because it has a slower NO release rate and the intact drug can be transported intracellularly before much NO is released.

[4] = system: mice; assay type: in vivo, mouse; details: for effect on blood pressure (controls) / effect on heart rate (controls): intraperitoneally, 8 mM Cbi(II) shown
Protocol: Mice were anesthetized with 1.5% isoflurane gas, and after achieving a stable blood pressure and pulse (about 10 minutes), they were injected intraperitoneally with 100 μl of […] 8 mM Cbi(II) (open circles, solid line), 8 mM NO-Cbi (filled circles, dashed line), or 8 mM nitroglycerin (squares, dotted lines) (panels a and b). Control refers to anesthetized mice who received 100 μl water (triangles, solid line). In panel C, 100 μl of 6 mM NO-Cbi was injected at 0, 32, and 64 minutes as indicated by the arrows. Systolic and diastolic blood pressures, and pulse rate, were measured at the indicated times on the tail artery using a non-invasive tail cuff. The percent change in mean arterial pressure (A and C), and pulse rate (B and C) are shown. For panels A and B, data are the mean±SD of results from five mice for NO-Cbi studied on separate days, and four mice for the other conditions. […] Data in panel C are the mean±SD of results from three mice studied on different days.
Pulse, and systolic and diastolic blood pressures, were measured non-invasively in the tail artery of mice by restraining mice on a warming platform maintained at ˜38° C. The base of the tail was placed in a computer-controlled pneumatic cuff, and the distal tail was placed in a sensor assembly consisting of a light emitting diode and a photodiode detector. Baseline measurements were made with the mice awake in a dark chamber. The mice were then anesthetized with 3% isoflurane in an induction chamber, and returned to the platform where they received 1.5% isoflurane with 2 liter per minute of oxygen via a nose cone; the isoflurane caused a small, but stable, drop in blood pressure. Drugs in a volume of 100 ul were injected intraperitoneally into the mice, and pulse and blood pressure were measured every 5-15 minute, taking five readings at each time point.
To determine the effect of NO release from NO-Cbi in an intact mammal, blood pressure and pulse of mice injected intraperitoneally with NO-Cbi were measured.

[5] = system: vasodilator-stimulated phosphoprotein (VASP) phosphorylated on Ser239 in CS-54 rat vascular smooth muscle cells; assay: VASP phosphorylation in CS-54 cells (immunoblot); assay type: cell-based; details: added to CS-54 cells; 30 μM cobinamide shown
Protocol: CS-54 rat vascular smooth muscle cells were treated with the indicated concentrations of NO-Cbi for 1 hour (A), or 10 μM NO-Cbi for the indicated times (B and C). […] In A and B, “Con” refers to control, which was cells treated with water. As indicated, the effects of 30 μM cobinamide (Cbi) and 100 μM 8-CPT-cGMP (cGMP) are shown for comparison. In A and B, similar results were obtained in two other experiments.
Briefly, cells treated with an NO-releasing agent were extracted rapidly in a sodium dodecyl sulfate (SDS) containing sample buffer, and the cell extracts were subjected to SDS-polyacrylamide gel electrophoresis. Phospho-VASP was assessed by immunoblotting using an antibody specific for VASP phosphorylated on Ser259 (Smolenski A et al. (1998) J. Biol. Chem. 273:20029-35).
To determine if NO released from NO-Cbi can have a physiologic effect in cultured cells, vasodilator-stimulated phosphoprotein (VASP) phosphorylation was assessed in CS-54 cells.

[6] = system: CS-54 rat vascular smooth muscle cells; details: added to CS-54 cells
Protocol: CS-54 rat vascular smooth muscle cells were treated with the indicated concentrations of NO-Cbi for 1 hour (A), or 10 μM NO-Cbi for the indicated times (B and C). […] (C) Cell extracts were clarified by centrifugation, and nitrite and nitrate in the extracts were measured by an enhanced Griess reagent method. In A and B, “Con” refers to control, which was cells treated with water. As indicated, the effects of 30 μM cobinamide (Cbi) and 100 μM 8-CPT-cGMP (cGMP) are shown for comparison. In A and B, similar results were obtained in two other experiments.
Nitrite and nitrate were measured in CS-54 cell extracts and fly extracts using a kit from Active Motif based on an enhanced Griess reagent, as described previously (Broderick K E et al. (2006) FASEB J. 20:1865-73).

[7] = system: D. melanogaster; assay: Viability of injected D. melanogaster; details: 1 μl injected; 1 mM (ascorbic acid 5 mM); observed 48 h
Protocol: (A) Tubular secretion rates of Malpighian tubules isolated from D. melanogaster were measured, using half-strength Schneider's medium. Basal tubular secretion was measured at 0, 10, and 20 minutes; at 20 minutes (depicted by the arrow) 1 mM cobinamide (Cbi, open circles), 1 mM NO-Cbi (filled circles), 0.5 mM Deta-NONOate (diamonds), or 100 μM 8-CPT-cGMP (inverted triangles) were added. Results are the mean±S.D. of three independent experiments performed on Malpighian tubule pairs from 10 flies. […] (B). Flies were injected with 1 μl of 1 mM cobinamide (Cbi, open circles), 1 mM NO-Cbi (filled circles), 0.5 mM Deta-NONOate (diamonds), or 1 mM spermine NONOate (squares). […] The data are plotted as a Kaplan-Meier survival curve, and are the mean±SD of three experiments, with 10 flies per condition per experiment. […] (C). Flies were injected with 1 μl of water (control, open bar), 1 mM cobinamide (Cbi, grey bar), or 1 mM NO-Cbi (black bars). Flies were killed and extracts were prepared at 3 hours for the water- and cobinamide-injected flies, and at the indicated times for the NO-Cbi-injected flies. Nitrite and nitrate in the extracts were measured using an enhanced Griess reagent.
The fluid volume of a fly is […], and thus, the injected agent was diluted about 10-fold. […]

[8] = system: rabbits; assay: Rabbits with phenylephrine-induced hypertension; assay type: in vivo, rabbit; details: phenylephrine 5 to 20 μg/kg/min continuous intravenous infusion
Protocol: Phenylephrine was given by continuous intravenous infusion to an anesthetized rabbit at increasing rates from 5 to 20 μg/kg/min; the rabbit remained on the highest phenylephrine infusion rate until the end of the experiment (darker arrows with “A”-shaped arrowheads indicate start times of each increasing dose). At 49 minutes, an infusion of NO-Cbi was started at a rate of 3 μg/kg/min (2.9 nmol/kg/min), with the infusion rate doubled at 58 minutes (lighter arrows with triangular-shaped arrowheads indicate start times of infusions). Systolic and diastolic blood pressure recordings from an intra-arterial catheter are shown. Changes in total hemoglobin, oxyhemoglobin, and deoxyhemoglobin concentrations were measured by continuous wave near-infrared spectroscopy over the left thigh muscle. Phenylephrine caused a progressive decrease in total hemoglobin and oxyhemoglobin concentrations, which reversed within seconds of starting the NO-Cbi infusion.
Decreased tissue oxygenation as occurred in the experiments shown in FIGS. 7 and 8 would clearly be an undesirable effect of treating hypertensive patients with NO-Cbi. However, lowering blood pressure of a hypertensive patient is very different from lowering blood pressure of a normotensive subject, and the experiments described in Example 15 rabbits with normal or low (due to anesthesia) blood pressure. To simulate a hypertensive state, the blood pressure of rabbits was raised using a continuous intravenous infusion of phenylephrine, a peripheral vasoconstrictor (FIG. 9). As the rabbit's blood pressure increased above normal, tissue perfusion and oxygenation decreased, as evidenced by a decrease in total hemoglobin and oxyhemoglobin concentrations in muscle.
Thus, in an animal with drug-induced hypertension, NO-Cbi improved tissue perfusion and oxygenation as it lowered blood pressure.

SMILES | effect on blood pressure (controls) [4] | effect on heart rate (controls) [4] | effect on VASP phosphorylation (controls) [5] | effect on nitrite/nitrate levels (controls) [6] | other results
NCCN(CCN)/[N+]([O-])=N/O [Deta-NONOate] |  |  |  |  | half-life [1]: ~50 h
Nc1ncnc2c1ncn2[C@@H]1O[C@H](CO)[C@@H](O)[C@H]1O [adenosine] |  |  |  |  | maximal coronary flow ([2]; 62 μM): 24.6±1.8 ml/min/g wet weight
C/C1=C2/[N-][C@H]([C@H](CC(N)=O)[C@@]2(C)CCC(=O)NC[C@@H](C)O)[C@]2(C)N=C(/C(C)=C3N=C(/C=C4N=C1[C@@H](CCC(N)=O)C\4(C)C)[C@@H](CCC(N)=O)[C@]\3(C)CC(N)=O)[C@@H](CCC(N)=O)[C@]2(C)CC(N)=O.[Co+3] [cobinamide, reference compound] | no significant effect | no significant effect | Neither cobinamide, Cbi(II), or ascorbate had any effect | Neither cobinamide, Cbi(II), or ascorbate had any effect | effect on tubular secretion (controls) [3]: Neither cobinamide nor Cbi(II) significantly affected tubular secretion; fly killing / toxicity to flies [7]: not toxic to flies
O=[N+]([O-])OCC(CO[N+](=O)[O-])O[N+](=O)[O-] [nitroglycerin] |  |  |  |  | systolic and diastolic blood pressure ([4]; 0.8 μmol (100 μl of 8 mM) intraperitoneally, anesthetized mice): late decrease in blood pressure; concentration relative to the NO-Cbi concentration for equal coronary flow [2]: about 100 fold; coronary flow ([2]; 12.0 μM infused): 15.3±1.0 ml/min/g wet weight; increase of coronary flow ([2]; 12.0 μM infused): 34%; concentration needed to increase coronary flow to that of NO-Cbi ([2]; versus 7 μM NO-Cbi): 770 µM
O=C1O[C@H]([C@@H](O)CO)C(O)=C1O [ascorbate, ascorbic acid, reference compound] | no significant effect | no significant effect | Neither cobinamide, Cbi(II), or ascorbate had any effect | Neither cobinamide, Cbi(II), or ascorbate had any effect | 
C/C1=C2/[N-][C@H]([C@H](CC(N)=O)[C@@]2(C)CCC(=O)NC[C@@H](C)O)[C@]2(C)N=C(/C(C)=C3N=C(/C=C4N=C1[C@@H](CCC(N)=O)C\4(C)C)[C@@H](CCC(N)=O)[C@]\3(C)CC(N)=O)[C@@H](CCC(N)=O)[C@]2(C)CC(N)=O.[Co] [Cbi(II), reference compound] | no significant effect | no significant effect | Neither cobinamide, Cbi(II), or ascorbate had any effect | Neither cobinamide, Cbi(II), or ascorbate had any effect | effect on tubular secretion (controls) [3]: Neither cobinamide nor Cbi(II) significantly affected tubular secretion
CNC[C@H](O)c1cccc(O)c1 [phenylephrine, reference compound] |  |  |  |  | systolic and diastolic blood pressure [8]: increased the systolic and diastolic blood pressure; total hemoglobin and oxyhemoglobin in muscle [8]: decreased total hemoglobin and oxyhemoglobin in the muscle
